Laboratory results reported in ChEMBL document CHEMBL1156829 (Proc Natl Acad Sci U S A, 2008).

What was measured:
Plasmodium falciparum [1] = assay: NOVARTIS: Inhibition of Plasmodium falciparum 3D7 (drug-susceptible) proliferation in erythrocyte-based infection assay; assay type: functional, organism-based; conditions: Plasmodium falciparum, 3D7
Plasmodium falciparum [2] = assay: NOVARTIS: Inhibition of Plasmodium falciparum W2 (drug-resistant) proliferation in erythrocyte-based infection assay; assay type: functional, organism-based; conditions: Plasmodium falciparum, W2; read-out: EC50
[3] = NOVARTIS: Cytotoxicity against human hepatocellular carcinoma cell line (Huh7); assay type: toxicity, cell-based, Huh-7; conditions: Huh7 cells (hepatocellular carcinoma cell line)

Row | SMILES | EC50 (Plasmodium falciparum [1]) | EC50 (Plasmodium falciparum [2]) | CC50 [3]
1 | COc1ccc(N2CCN(C(=O)C3=C(C)C(=O)OC34CCCCC4)CC2)cc1 | 1620 nM | > 1130 nM | > 10000 nM
2 | O=C(Nc1cccc(Cl)c1)Nc1cc(C(F)(F)F)cc(C(F)(F)F)c1 | 3220 nM | > 9990 nM | 19500 nM
3 | CCCCCCc1ccc(C(=O)N(C)CCCNc2ccnc3cc(Cl)ccc23)cc1 | 670 nM | 219 nM | > 10800 nM
4 | S=C(NN=CC=NNC(=S)Nc1ccccc1)Nc1ccccc1 | 1040 nM | 288 nM | 15000 nM
5 | CCc1cc2c(Nc3ccncc3)ncnc2s1 | 2500 nM | 2940 nM | > 100000 nM
6 | CCc1nc2nc(C)cc(Nc3ccc(I)cc3)n2n1 | 260 nM | < 3 nM | > 100000 nM
7 | CCSC(Cl)=C(NC(=O)c1ccccc1)[P+](c1ccccc1)(c1ccccc1)c1ccccc1.[O-][Cl+3]([O-])([O-])[O-] | 123 nM | 45.5 nM | 32200 nM
8 | COc1ccc(CN2CCOc3ccc(C(C)(O)CN(C)C)cc3C2)cc1C (centres undefined) | 823 nM | 193 nM | > 100000 nM
9 | CCOc1ccc2nc(C)cc(Nc3ccc(C)c(Cl)c3)c2c1 | 240 nM | 348 nM | 13600 nM
10 | C/C=C/C(C(=O)NCCCC)N1C(=O)c2cc(NC(C)=O)ccc2NC(=O)[C@@H]1C (some centres undefined) | 199 nM | 4.57 nM | 7590 nM
11 | O=C(NCCCCNc1ccnc2cc(Cl)ccc12)C(c1ccccc1)c1ccccc1 | 730 nM | 440 nM | > 8210 nM
12 | CCOC(=O)c1cnc2c(C)cccc2c1Nc1cccc(C(C)=O)c1 | 1020 nM | 607 nM | > 100000 nM
13 | Cc1oc2c(c1C(=O)N1CCCC1)C(=O)c1ccccc1C2=O | 2370 nM | 1050 nM | 9860 nM
14 | CN(C)CCNc1cc(-c2cccc(C(F)(F)F)c2)nc(-c2ccncc2)n1 | > 1250 nM | 1680 nM | > 10000 nM
15 | COc1cccc(C(=O)C[n+]2cc(-c3ccc(Cl)cc3)n3c2CCC3)c1 | 1740 nM | 975 nM | > 100000 nM
16 | COc1c2occc2c(OC)c2c(=O)cc(C(Cl)(Cl)Cl)oc12 | 646 nM | 254 nM | > 100000 nM
17 | CCSc1ncnc2scc(-c3ccccc3)c12 | > 1510 nM | 1710 nM | > 10000 nM
18 | Cc1nc(NC(=N)N)nc2ccccc12 | 887 nM | 858 nM | 66400 nM
19 | COc1cccc(C2C(C(=O)Nc3ccccc3)=C(C)N=c3sc(=Cc4c[nH]c5ccccc45)c(=O)n32)c1 (centres undefined) | 2470 nM | 964 nM | > 100000 nM
20 | CCCCCCN(C(=O)c1ccc(C(C)(C)C)cc1)C(CC)c1nc2ccccc2c(=O)n1-c1ccc(F)cc1 (centres undefined) | 795 nM | 1020 nM | > 10000 nM
21 | Cc1cc(C)c(CSc2ncnc3[nH]cnc23)c(C)c1 | > 1520 nM | > 278 nM | > 10000 nM
22 | Clc1ccc(Nc2nc(NCc3ccco3)c3ccccc3n2)cc1 | 113 nM | 92.4 nM | 15600 nM
23 | COc1ccc(Nc2ccccc2NC(=O)c2cccc(N(C)C)c2)cc1 | 2450 nM | 2290 nM | > 100000 nM

Row | SMILES | EC50 (Plasmodium falciparum [1]) | EC50 (Plasmodium falciparum [2]) | CC50 [3]
24 | CCCCOc1ccc(C=CC(=O)NCc2ccco2)cc1 | 1070 nM | 717 nM | > 100000 nM
25 | CC(C)(C)OCCN(CC(O)CN(Cc1ccccc1)C(=O)NC(c1ccccc1)c1ccccc1)S(=O)(=O)c1ccccc1 (centres undefined) | 1100 nM | < 26.4 nM | > 10000 nM
26 | O=C(c1ccccc1F)N1CCN(Cc2ccccc2C(F)(F)F)CC1 | 511 nM | 2470 nM | > 100000 nM
27 | Oc1cccc(Nc2nc(NCc3ccco3)c3ccccc3n2)c1 | 275 nM | 279 nM | 11500 nM
28 | CC(CCCNCCO)Nc1ccnc2cc(Cl)ccc12 (centres undefined) [CLETOQUINE] | 26.9 nM | 736 nM | 14000 nM
29 | CC(=O)N1CCN(C(=O)CCCSc2nnc(-c3ccc(C)cc3)n2-c2cccc(C)c2)CC1C (centres undefined) | > 914 nM | > 634 nM | > 10000 nM
30 | COc1ccc(CCN2C(=O)N(CC(C)C)C(=O)C23CCN(Cc2ccccc2O)CC3)cc1 | 225 nM | 93.1 nM | > 100000 nM
31 | CCOc1ccc(C2N(C)c3ccccc3N2C)cc1 | 250 nM | 344 nM | > 10000 nM
32 | COCCNC(=O)c1ccc(OC2CCN(CC(c3ccccc3)c3ccccc3)CC2)c(OC)c1 | 303 nM | 74.9 nM | > 76700 nM
33 | COC1C(OC2OC(C)C(O)C(C)(O)C2OC)c2c(cc3c(c2O)C(=O)c2c(ccc4c2OC2OC4(C)C(OC4CC(C)([N+](=O)[O-])C(OC5OC(C)C(O)C(C)(O)C5OC)C(C)O4)C(N(C)C)C2O)C3=O)CC1(C)O (centres undefined) | 131 nM | 70.1 nM | > 10000 nM
34 | C=CC[n+]1ccc(/C=C/c2ccccc2)c(C)c1 | 656 nM | 558 nM | > 10000 nM
35 | O=c1[nH]c(N2CCCC2)nc2c1CCN(Cc1coc3ccccc3c1=O)C2 | > 1250 nM | > 896 nM | > 10000 nM
36 | C(#Cc1ccccc1)CN(Cc1ccccn1)Cc1ccccn1 | 1560 nM | 300 nM | > 14100 nM
37 | O=C(NCc1ccccc1)c1cnc(NCCCn2ccnc2)nc1NCCc1ccccc1 | 205 nM | 320 nM | 12800 nM
38 | Cc1ccc(C(C(=O)NC(C)(C)C)N(C(=O)c2ccc(-c3ccccc3)[nH]2)c2ccc(C3CCCCC3)cc2)o1 (centres undefined) | 337 nM | 765 nM | > 10000 nM
39 | COc1ccc(Cl)cc1NC(=O)CSC1=C(C#N)C(c2ccccc2)C(C(=O)Nc2ccccc2)=C(C)N1 (centres undefined) | 3760 nM | 1910 nM | > 100000 nM
40 | CCOC(=O)c1c(C)[nH]c(C)c1S(=O)(=O)N1CCCC(C(=O)N2CCN(c3cc(C)ccc3C)CC2)C1 (centres undefined) | 231 nM | 367 nM | > 82300 nM
41 | CC1(C)O[C@@H]2OC([C@@H](O)CNc3ccc([N+](=O)[O-])cc3[N+](=O)[O-])C(O)[C@@H]2O1 (some centres undefined) | 299 nM | 366 nM | 12000 nM
42 | CCC(c1nc2ccccc2c(=O)n1-c1ccccc1OC)N(CCc1ccccc1)C(=O)Nc1ccccc1OC (centres undefined) | 1030 nM | 366 nM | > 10000 nM
43 | CCCCC(=O)NC(c1cccc([N+](=O)[O-])c1)c1ccc2cccnc2c1O (centres undefined) | 376 nM | 267 nM | 18800 nM
44 | CCOc1ccc2[nH]c(=O)c(CN(CCN3CCCC3)C(=S)Nc3ccc(F)cc3)cc2c1 | 1820 nM | 2510 nM | > 100000 nM
45 | CCOC(=O)C(=CNc1ccc(I)cn1)C(=O)OCC | 190 nM | < 12.6 nM | > 10000 nM
46 | CCC[P+](CCC)(CCC)CC1OCc2ccccc2CO1 | 1800 nM | 3600 nM | > 100000 nM

Row | SMILES | EC50 (Plasmodium falciparum [1]) | EC50 (Plasmodium falciparum [2]) | CC50 [3]
47 | COc1ccccc1NC(=O)N1CCN(C(=O)c2nc(-c3ccccc3)nc(C)c2C(=O)OC(C)C)CC1C (centres undefined) | 529 nM | < 16.9 nM | > 10000 nM
48 | O=C(Nc1ccccc1Cl)NC1(C(=O)NCC2CCCO2)CCCCC1 (centres undefined) | > 984 nM | > 1250 nM | > 10000 nM
49 | Cc1c(C=O)c2ccccc2n1CC(=O)Nc1cccc(I)c1 | 365 nM | 405 nM | > 61200 nM
50 | CCOC(=O)c1c(CC)nc(-c2ccccc2)nc1C(=O)N1CCC(C)CC1 | > 1250 nM | < 13 nM | 4060 nM
51 | CCOC(=O)c1c(NC(=O)Cc2ccc([N+](=O)[O-])cc2)sc2c1CCCC2 | > 1060 nM | > 1250 nM | > 10000 nM
52 | CCC(CC)C(=O)Nc1c2c(nn1-c1cccc(Cl)c1)C[S+]([O-])C2 (centres undefined) | 11900 nM | 1300 nM | > 100000 nM
53 | FC(F)(F)c1cccc(CNC2CCN(CCc3ccccc3)CC2)c1 | 174 nM | 487 nM | 7390 nM
54 | O=C(O)CSc1nc2c(ccc3nsnc32)[nH]1 | > 964 nM | > 1440 nM | > 10000 nM
55 | Cn1c2ccccc2c2nnc(NN=Cc3ccccn3)nc21 | 866 nM | 793 nM | > 10000 nM
56 | O=C1NC(=S)N/C1=C\C=C\c1ccc([N+](=O)[O-])o1 | > 881 nM | 2200 nM | > 10000 nM
57 | Nc1ccc(-c2nc(-c3ccc(N)cc3)c3ccccc3n2)cc1 | > 1250 nM | 759 nM | > 10000 nM
58 | O=C(Nc1ccc(C2=NCCN2)cc1)c1cc(Cl)c(C(=O)Nc2ccc(C3=NCCN3)cc2)cc1Cl | 66 nM | 308 nM | > 10000 nM
59 | CCCS(=O)(=O)N1CCC(CO)(Cc2ccccc2C(F)(F)F)CC1 | 1250 nM | 692 nM | > 10000 nM
60 | CCOC(=O)c1c(Cl)nnc(-c2ccccc2)c1-c1ccccc1 | 797 nM | > 1440 nM | > 10000 nM
61 | O=C(Nc1ccc2c3c(cccc13)CC2)c1cccc2ccccc12 | > 1200 nM | > 1250 nM | > 10000 nM
62 | COc1cc(NC(C)CCCN(Cc2ccc(F)cc2)C(=O)c2ccccc2F)c2ncccc2c1 (centres undefined) | 692 nM | 649 nM | > 8740 nM
63 | CCc1ccc2[nH]c(=O)c(CN(CCO)C(=S)Nc3ccccc3CC)cc2c1 | 2620 nM | 1910 nM | 48000 nM
64 | COc1ccccc1CCNCc1cc(-c2ccc(F)cc2)ccc1O | 1050 nM | 869 nM | > 10000 nM
65 | CCCCN(CC(=O)Nc1cc(C(C)(C)C)nn1-c1ccc(Cl)cc1)C(=O)c1ccc(OC)cc1 | > 1390 nM | 52.7 nM | 5080 nM
66 | CCOc1ccc(-n2cc(-c3ccccc3)c3c(SCc4cc(C)ccc4C)ncnc32)cc1 | 2010 nM | > 1250 nM | > 10000 nM
67 | CCOC(=O)c1ccc(N2CCN(c3ccc(F)cc3)CC2)c(NC(=O)Nc2ccccc2)c1 | > 1250 nM | > 860 nM | > 10000 nM
68 | Nc1cc(C(=O)Nc2cccc(C3=NCCN3)c2)ccc1C(=O)Nc1cccc(C2=NCCN2)c1 | 199 nM | 110 nM | > 100000 nM
